BindingDB's records for doi:10.1016/j.bioorg.2014.11.006 (Comsats Institute of Information Technology, 2015)

Molecular target: Alpha-glucosidase MAL12 (Saccharomyces cerevisiae (strain ATCC 204508 / S288c), UniProt P53341)
Experiment: Alpha-glucosidase Inhibition Assay
Settings: 37 °C
Description: A 100 µL assay mixture containing 70 µL phosphate buffer saline (50 mM at pH 6.8), 10 µL corresponding test compounds dissolved in methanol/DMSO (0.5 mM) and 10 µL (0.057 units) α-glucosidase enzyme were mixed, pre-incubated for 10 min at 37C and the abosrbance was recorded at 400 nm. The reaction was initiated by the addition of 10 µL p-nitrophenyl-α-D-glucopyranoside (substrate, 0.5 mM/well).

Alpha-glucosidase MAL12, sequence (P53341 whole entry): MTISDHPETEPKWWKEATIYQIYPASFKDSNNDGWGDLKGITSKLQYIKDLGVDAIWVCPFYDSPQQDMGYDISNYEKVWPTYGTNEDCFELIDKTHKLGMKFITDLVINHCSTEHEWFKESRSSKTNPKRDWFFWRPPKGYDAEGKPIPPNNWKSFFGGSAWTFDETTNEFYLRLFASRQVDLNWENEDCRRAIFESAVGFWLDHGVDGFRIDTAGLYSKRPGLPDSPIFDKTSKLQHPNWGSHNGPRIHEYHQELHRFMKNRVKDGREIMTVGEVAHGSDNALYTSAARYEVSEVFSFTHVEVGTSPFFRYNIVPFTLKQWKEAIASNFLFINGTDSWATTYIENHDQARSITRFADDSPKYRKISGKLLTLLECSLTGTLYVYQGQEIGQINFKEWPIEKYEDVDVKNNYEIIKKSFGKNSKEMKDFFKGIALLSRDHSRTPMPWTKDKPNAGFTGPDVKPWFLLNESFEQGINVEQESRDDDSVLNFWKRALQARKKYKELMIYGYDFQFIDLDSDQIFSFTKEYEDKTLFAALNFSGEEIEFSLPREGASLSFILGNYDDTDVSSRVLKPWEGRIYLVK

Structure (SMILES)	IC50
COc1cccc(-c2nc(-c3ccccc3)c(-c3ccccc3)[nH]2)c1	359 µM
Clc1ccc(-c2nc(-c3ccccc3)c(-c3ccccc3)[nH]2)cc1	458 µM
Oc1ccccc1-c1nc(-c2ccccc2)c(-c2ccccc2)[nH]1	74.3 µM
COc1cccc(-c2nc(-c3ccccc3)c(-c3ccccc3)[nH]2)c1O [2-(4,5-Diphenyl-1H-imidazol-2-yl)-6-methoxyphenol (3g)]	107 µM
Oc1ccc(-c2nc(-c3ccccc3)c(-c3ccccc3)[nH]2)cc1 [SR-01000511510-2]	97.1 µM
